From ChEMBL document CHEMBL3885861, “Open TG-GATES”

Species on record: Rattus norvegicus
Assay: Open TG-GATES - Regimen: Single
Format: toxicity, organism-based, Sprague-Dawley
Set-up: regimen Single, gender Male, age 6 weeks
Settings: in vivo, po, route gavage; for APTT / Bas / Eos / Fbg / Hb / Ht / Lym / MCH / MCHC / MCV / Mono / Neu / PT / Plat / RBC / Ret / WBC: tissue Blood; for KIDNEY_L / KIDNEY_R / KIDNEY_TOTAL: tissue Kidney; for ALP / AST / CRE / Cl / DBIL / GLC / IP / K / LDH / Na / PL / RALB / TBIL / TC / TG / TP / gamma-GTP / ALT: tissue Plasma
[1] = 0 mg/kg, 3 h, dose level Control
[2] = 0 mg/kg, 6 h, dose level Control
[3] = 0 mg/kg, 9 h, dose level Control
[4] = 0 mg/kg, 24 h, dose level Control

SMILES: COc1cc2c(c(OC)c1OC)-c1ccc(OC)c(=O)cc1[C@@H](NC(C)=O)CC2 [COLCHICINE]
- TERMINAL_BW [1]: 221.7 g
- APTT [1]: 16.2 s
- Bas [1]: 0%
- Eos [1]: 0.8%
- Fbg [1]: 209.4 mg/dL
- Hb [1]: 13.1 g/dL
- Ht [1]: 39.6%
- Lym [1]: 81.8%
- MCH [1]: 21.6 pg
- MCHC [1]: 33.1%
- MCV [1]: 65.2 fL
- Mono [1]: 7%
- Neu [1]: 10.4%
- PT [1]: 11.8 s
- Plat [1]: 118.4 x10_4/uL
- RBC [1]: 608.4 x10_4/ul
- Ret [1]: 10.3%
- WBC [1]: 89.6 x10_2/uL
- KIDNEY_L [1]: 1 g
- KIDNEY_R [1]: 1.1 g
- KIDNEY_TOTAL [1]: 2 g
- ALP [1]: 835.6 IU/L
- AST [1]: 65.6 IU/L
- CRE [1]: 0.4 mg/dL
- Cl [1]: 103.4 meq/L
- DBIL [1]: 0.038 mg/dL
- GLC [1]: 208.6 mg/dL
- IP [1]: 9.3 mg/dL
- K [1]: 4.5 meq/L
- LDH [1]: 88.4 IU/L
- Na [1]: 140.2 meq/L
- PL [1]: 139.2 mg/dL
- RALB [1]: 3.6 g/dL
- TBIL [1]: 0.3 mg/dL
- TC [1]: 78.4 mg/dL
- TG [1]: 61 mg/dL
- TP [1]: 5.4 g/dL
- gamma-GTP [1]: 1.4 IU/L
- TERMINAL_BW [2]: 218.4 g
- APTT [2]: 16.3 s
- Bas [2]: 0%
- Eos [2]: 0.8%
- Fbg [2]: 222.4 mg/dL
- Hb [2]: 13.1 g/dL
- Ht [2]: 39.9%
- Lym [2]: 82.2%
- MCH [2]: 21.6 pg
- MCHC [2]: 33%
- MCV [2]: 65.4 fL
- Mono [2]: 6.6%
- Neu [2]: 10.4%
- PT [2]: 12 s
- Plat [2]: 110.7 x10_4/uL
- RBC [2]: 609.8 x10_4/ul
- Ret [2]: 9.6%
- WBC [2]: 104.3 x10_2/uL
- KIDNEY_L [2]: 1 g
- KIDNEY_R [2]: 1 g
- KIDNEY_TOTAL [2]: 2 g
- ALP [2]: 745.2 IU/L
- ALT [2]: 27.6 IU/L
- AST [2]: 59 IU/L
- CRE [2]: 0.5 mg/dL
- Cl [2]: 104 meq/L
- DBIL [2]: 0.036 mg/dL
- GLC [2]: 188.2 mg/dL
- IP [2]: 10.1 mg/dL
- K [2]: 4.6 meq/L
- LDH [2]: 77.2 IU/L
- Na [2]: 139 meq/L
- PL [2]: 135.2 mg/dL
- RALB [2]: 3.7 g/dL
- TBIL [2]: 0.4 mg/dL
- TC [2]: 73.2 mg/dL
- TG [2]: 48.4 mg/dL
- TP [2]: 5.5 g/dL
- gamma-GTP [2]: 1.6 IU/L
- TERMINAL_BW [3]: 218.9 g
- APTT [3]: 16.3 s
- Bas [3]: 0%
- Eos [3]: 0.8%
- Fbg [3]: 216.2 mg/dL
- Hb [3]: 12.8 g/dL
- Ht [3]: 38.9%
- Lym [3]: 85.4%
- MCH [3]: 21.6 pg
- MCHC [3]: 33%
- MCV [3]: 65.8 fL
- Mono [3]: 5.4%
- Neu [3]: 8.4%
- PT [3]: 12.1 s
- Plat [3]: 111 x10_4/uL
- RBC [3]: 591.6 x10_4/ul
- Ret [3]: 9.4%
- WBC [3]: 88.7 x10_2/uL
- KIDNEY_L [3]: 1 g
- KIDNEY_R [3]: 1.1 g
- KIDNEY_TOTAL [3]: 2.1 g
- ALP [3]: 948.4 IU/L
- ALT [3]: 28.8 IU/L
- AST [3]: 64.4 IU/L
- CRE [3]: 0.5 mg/dL
- Cl [3]: 105.2 meq/L
- DBIL [3]: 0.044 mg/dL
- GLC [3]: 199.8 mg/dL
- IP [3]: 9.9 mg/dL
- K [3]: 4.9 meq/L
- LDH [3]: 71.2 IU/L
- Na [3]: 137.6 meq/L
- PL [3]: 134.4 mg/dL
- RALB [3]: 3.8 g/dL
- TBIL [3]: 0.4 mg/dL
- TC [3]: 77.6 mg/dL
- TG [3]: 40 mg/dL
- TP [3]: 5.4 g/dL
- gamma-GTP [3]: 1.6 IU/L
- TERMINAL_BW [4]: 232.9 g
- APTT [4]: 16.4 s
- Bas [4]: 0%
- Eos [4]: 1.2%
- Fbg [4]: 215.8 mg/dL
- Hb [4]: 12.8 g/dL
- Ht [4]: 38.6%
- Lym [4]: 77.2%
- MCH [4]: 21.7 pg
- MCHC [4]: 33.1%
- MCV [4]: 65.5 fL
- Mono [4]: 7.2%
- Neu [4]: 14.6%
- PT [4]: 11.2 s
- Plat [4]: 118.5 x10_4/uL
- RBC [4]: 588.4 x10_4/ul
- Ret [4]: 10.2%
- WBC [4]: 102.4 x10_2/uL
- KIDNEY_L [4]: 1.1 g
- KIDNEY_R [4]: 1.1 g
- KIDNEY_TOTAL [4]: 2.2 g
- ALP [4]: 858 IU/L
- AST [4]: 61.2 IU/L
- CRE [4]: 0.5 mg/dL
- Cl [4]: 102.8 meq/L
- DBIL [4]: 0.022 mg/dL
- GLC [4]: 203 mg/dL
- IP [4]: 7.7 mg/dL
- K [4]: 4.9 meq/L
- LDH [4]: 86.2 IU/L
- Na [4]: 137.6 meq/L
- PL [4]: 156.8 mg/dL
- RALB [4]: 3.8 g/dL
- TBIL [4]: 0.4 mg/dL
- TC [4]: 84.8 mg/dL
- TG [4]: 122.8 mg/dL
- TP [4]: 5.7 g/dL
- gamma-GTP [4]: 1 IU/L
- TERMINAL_BW (2 mg/kg, 3 h, dose level Low): 218.7 g
